According to PubChem BioAssay (NCI):
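Assay format: 96-well plates, 48-hour exposure. TGI is the concentration that stops growth completely.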

What was measured:
Test in all cases: NCI tumour cell line growth inhibition, 48 h
KM12 colon = tested on: KM12 colon
MDA-MB-435 = tested on: MDA-MB-435
HS 578T breast = tested on: HS 578T breast
NCI-H226 lung = tested on: NCI-H226 lung
TK-10 renal = tested on: TK-10 renal
NCI-H23 lung = tested on: NCI-H23 lung
SK-MEL-28 melanoma = tested on: SK-MEL-28 melanoma
BT-549 breast = tested on: BT-549 breast
LOX IMVI melanoma = tested on: LOX IMVI melanoma
RPMI-8226 leukemia = tested on: RPMI-8226 leukemia
A549 NSCLC = tested on: A549 NSCLC
HL-60(TB) leukemia = tested on: HL-60(TB) leukemia
HCC-2998 colon = tested on: HCC-2998 colon
CCRF-CEM leukemia = tested on: CCRF-CEM leukemia
SR leukemia = tested on: SR leukemia
UO-31 renal = tested on: UO-31 renal
NCI-H460 lung = tested on: NCI-H460 lung
MDA-MB-231 breast = tested on: MDA-MB-231 breast
HCT-15 colon = tested on: HCT-15 colon
SF-539 CNS = tested on: SF-539 CNS
EKVX NSCLC = tested on: EKVX NSCLC
IGROV1 ovarian = tested on: IGROV1 ovarian
COLO 205 colon = tested on: COLO 205 colon
NCI/ADR-RES ovarian = tested on: NCI/ADR-RES ovarian
UACC-62 melanoma = tested on: UACC-62 melanoma
SW-620 colon = tested on: SW-620 colon
OVCAR-8 ovarian = tested on: OVCAR-8 ovarian
SK-MEL-5 melanoma = tested on: SK-MEL-5 melanoma
CAKI-1 renal = tested on: CAKI-1 renal
PC-3 prostate = tested on: PC-3 prostate
UACC-257 melanoma = tested on: UACC-257 melanoma
MCF7 breast = tested on: MCF7 breast
MALME-3M melanoma = tested on: MALME-3M melanoma
NCI-H522 lung = tested on: NCI-H522 lung
M14 melanoma = tested on: M14 melanoma
SNB-75 CNS = tested on: SNB-75 CNS
OVCAR-3 ovarian = tested on: OVCAR-3 ovarian
OVCAR-4 ovarian = tested on: OVCAR-4 ovarian
HT29 colon = tested on: HT29 colon
RXF 393 renal = tested on: RXF 393 renal
SF-268 CNS = tested on: SF-268 CNS
MDA-N = tested on: MDA-N
786-0 renal = tested on: 786-0 renal
MOLT-4 leukemia = tested on: MOLT-4 leukemia
A498 renal = tested on: A498 renal
HOP-92 NSCLC = tested on: HOP-92 NSCLC
DU-145 prostate = tested on: DU-145 prostate
SK-OV-3 ovarian = tested on: SK-OV-3 ovarian
U251 CNS = tested on: U251 CNS
OVCAR-5 ovarian = tested on: OVCAR-5 ovarian
SK-MEL-2 melanoma = tested on: SK-MEL-2 melanoma
T-47D breast = tested on: T-47D breast
SN12C renal = tested on: SN12C renal
SNB-19 CNS = tested on: SNB-19 CNS
ACHN renal = tested on: ACHN renal
HOP-62 NSCLC = tested on: HOP-62 NSCLC
K-562 leukemia = tested on: K-562 leukemia
SF-295 CNS = tested on: SF-295 CNS
HCT-116 colon = tested on: HCT-116 colon

COc1cc(C2c3cc4c(cc3OC(N3CCCCC3)C2C)OCO4)cc(OC)c1OC (stereo not drawn) was tested, and the TGI (KM12 colon) was 37.4 µM, the TGI (MDA-MB-435) was 2.91 µM and the TGI (HS 578T breast) was 7.23 µM. It also gave a TGI (NCI-H226 lung) of 13.5 µM, a TGI (TK-10 renal) of 35.4 µM and a TGI (NCI-H23 lung) greater than 49.8 µM. For the same molecule, the TGI (SK-MEL-28 melanoma) was greater than 100 µM, the TGI (BT-549 breast) was greater than 100 µM and the TGI (LOX IMVI melanoma) was 45 µM. For the same molecule, the TGI (RPMI-8226 leukemia) was 37.9 µM, the TGI (A549 NSCLC) was 36.1 µM and the TGI (HL-60(TB) leukemia) was greater than 22.2 µM. The TGI (HCC-2998 colon) was 8.39 µM, the TGI (CCRF-CEM leukemia) was 23.2 µM and the TGI (SR leukemia) was greater than 54.2 µM. It also gave a TGI (UO-31 renal) of 46.2 µM, a TGI (NCI-H460 lung) of 18 µM and a TGI (MDA-MB-231 breast) of 21 µM. For the same molecule, the TGI (HCT-15 colon) was greater than 100 µM, the TGI (SF-539 CNS) was 5.9 µM and the TGI (EKVX NSCLC) was greater than 100 µM. The TGI (IGROV1 ovarian) was 26 µM, the TGI (COLO 205 colon) was 11.3 µM and the TGI (NCI/ADR-RES ovarian) was 17.1 µM. For the same molecule, the TGI (UACC-62 melanoma) was 47 µM, the TGI (SW-620 colon) was greater than 55.4 µM and the TGI (OVCAR-8 ovarian) was greater than 63.6 µM. The TGI (SK-MEL-5 melanoma) was 17.6 µM, the TGI (CAKI-1 renal) was 17.5 µM and the TGI (PC-3 prostate) was greater than 100 µM. It also gave a TGI (UACC-257 melanoma) greater than 82.7 µM, a TGI (MCF7 breast) of 19.4 µM and a TGI (MALME-3M melanoma) greater than 84.6 µM. For the same molecule, the TGI (NCI-H522 lung) was 9.99 µM, the TGI (M14 melanoma) was 15 µM and the TGI (SNB-75 CNS) was 19.3 µM. The TGI (OVCAR-3 ovarian) was 6.66 µM, the TGI (OVCAR-4 ovarian) was greater than 100 µM and the TGI (HT29 colon) was 19.8 µM. It also gave a TGI (RXF 393 renal) of 5.49 µM, a TGI (SF-268 CNS) greater than 53.7 µM and a TGI (MDA-N) of 3.28 µM. The TGI (786-0 renal) was 16.3 µM, the TGI (MOLT-4 leukemia) was 67.4 µM and the TGI (A498 renal) was 12.8 µM. For the same molecule, the TGI (HOP-92 NSCLC) was 48.1 µM, the TGI (DU-145 prostate) was 19.8 µM and the TGI (SK-OV-3 ovarian) was 12.6 µM. The TGI (U251 CNS) was 12.7 µM, the TGI (OVCAR-5 ovarian) was greater than 45.7 µM and the TGI (SK-MEL-2 melanoma) was 14.9 µM. For the same molecule, the TGI (T-47D breast) was greater than 53.8 µM, the TGI (SN12C renal) was greater than 100 µM and the TGI (SNB-19 CNS) was 26.2 µM. It also gave a TGI (ACHN renal) of 28.7 µM, a TGI (HOP-62 NSCLC) of 10.2 µM and a TGI (K-562 leukemia) of 13.7 µM. It also gave a TGI (SF-295 CNS) of 5.77 µM and a TGI (HCT-116 colon) of 15.3 µM.
CC(C)(Cl)C(Cl)CC/C(CBr)=C(\Cl)CCl (stereo not drawn) gave a TGI (KM12 colon) of 19.5 µM, a TGI (MDA-MB-435) of 8.56 µM and a TGI (HS 578T breast) of 25.3 µM. It also gave a TGI (NCI-H226 lung) of 15.3 µM, a TGI (TK-10 renal) of 27.7 µM and a TGI (NCI-H23 lung) of 14.4 µM. For the same molecule, the TGI (SK-MEL-28 melanoma) was 8.84 µM, the TGI (BT-549 breast) was 3.63 µM and the TGI (LOX IMVI melanoma) was 1.35 µM. It also gave a TGI (RPMI-8226 leukemia) of 4.59 µM, a TGI (A549 NSCLC) of 34.1 µM and a TGI (HL-60(TB) leukemia) of 4.65 µM. It also gave a TGI (HCC-2998 colon) of 27.7 µM, a TGI (CCRF-CEM leukemia) of 2.95 µM and a TGI (SR leukemia) of 3.31 µM. For the same molecule, the TGI (UO-31 renal) was 17 µM, the TGI (NCI-H460 lung) was 28 µM and the TGI (MDA-MB-231 breast) was 7.28 µM. The TGI (HCT-15 colon) was 4.35 µM, the TGI (SF-539 CNS) was 15.5 µM and the TGI (EKVX NSCLC) was 31.8 µM. The TGI (IGROV1 ovarian) was 4.66 µM, the TGI (COLO 205 colon) was 11.1 µM and the TGI (NCI/ADR-RES ovarian) was 34 µM. It also gave a TGI (UACC-62 melanoma) of 3.79 µM, a TGI (SW-620 colon) of 4.12 µM and a TGI (OVCAR-8 ovarian) of 12.6 µM. For the same molecule, the TGI (SK-MEL-5 melanoma) was 6.58 µM, the TGI (CAKI-1 renal) was 9.92 µM and the TGI (PC-3 prostate) was 20 µM. It also gave a TGI (UACC-257 melanoma) of 14 µM, a TGI (MCF7 breast) of 32.1 µM and a TGI (MALME-3M melanoma) of 20.2 µM. For the same molecule, the TGI (NCI-H522 lung) was 1.88 µM, the TGI (M14 melanoma) was 3.61 µM and the TGI (SNB-75 CNS) was 14.1 µM. The TGI (OVCAR-3 ovarian) was 12.2 µM, the TGI (OVCAR-4 ovarian) was 7.45 µM and the TGI (HT29 colon) was 14.7 µM. For the same molecule, the TGI (RXF 393 renal) was 23 µM, the TGI (SF-268 CNS) was 29.1 µM and the TGI (MDA-N) was 5.26 µM. It also gave a TGI (786-0 renal) of 6.5 µM, a TGI (MOLT-4 leukemia) of 2.63 µM and a TGI (A498 renal) of 35.3 µM. The TGI (HOP-92 NSCLC) was 23.7 µM, the TGI (DU-145 prostate) was 26.7 µM and the TGI (SK-OV-3 ovarian) was 17.9 µM. It also gave a TGI (U251 CNS) of 16.2 µM, a TGI (OVCAR-5 ovarian) of 28.3 µM and a TGI (SK-MEL-2 melanoma) of 5.32 µM. For the same molecule, the TGI (T-47D breast) was 3.88 µM, the TGI (SN12C renal) was 9.47 µM and the TGI (SNB-19 CNS) was 32.7 µM. It also gave a TGI (ACHN renal) of 28.3 µM, a TGI (HOP-62 NSCLC) of 26 µM and a TGI (K-562 leukemia) of 17.1 µM. The TGI (SF-295 CNS) was 30.6 µM and the TGI (HCT-116 colon) was 8.74 µM.
